Structures can show the parent of a compound that is named as a salt. Where two headings read alike, the source gives them in different places.
Experiments:
[1] = Local anaesthetic activity; format: in vivo; details: primary tests / detailed tests
[2] = system: tremor induced by tremorine; test: animal or person; format: in vivo, mice; details: for ED50: Mus musculus; for ED50 / T.I. (therapeutic index) (Table 1) / T.I. (therapeutic index) (Table 2): po; for ED50 p.o., inhibition of tremor induced by tremorine (Table 1) / ED50 p.o., inhibition of tremor induced by tremorine (Table 2): hydrochloride
Method: (§1) The hydrochloride of the racemic compound, the hydrochloride of the (-)-isomer [compound of Example 6; the salt has (+) rotation] and the hydrochloride of the (+)-isomer [compound of Example 7; the salt has (-) rotation] were tested for acute toxicity on mice with peroral treatment and for the inhibition of tremor induced by tremorine (the latter test characterizes the action against Parkinson's disease). In the latter case, the inhibition of tremor induced by tremorine [1,1'-(2-butynylene)-dipyrrolidine] administered intraperitoneally at a dosage of 20 mg/kg was tested on mice as described in Science, 124, 79 (1956). The compound to be examined was given perorally to a population of 50 mice one hour prior to the administration of tremorine, and the tremor developed was evaluated 45 minutes after the administration of tremorine.
Since a lower population of mice was used, less exact values of ED50 were obtained for the compounds tested. Thus, the therapeutic index calculated for the racemic compound is lower by a factor of about 2.4 than the value given in U.S. Pat. No. 4 4,208,410. However, the data obtained under identical test circumstances on a relatively low number of test animals can be compared with each other.
(§2) To make sure that no contradiction exists between the data of Table I on the one hand, and the data of U.S. Pat. No. 4,208,410 on the other hand, the above tests was repeated using a population of 500 mice for each compound tested.

[3] = Acute toxicity on mice with peroral treatment; format: in vivo; details: mouse, in vivo, po
Method: as §1, §2

[4] = system: mice; test: Acute toxicity on mice with peroral treatment; format: in vivo; details: for LD50 p.o. (Table 1): Table 1, hydrochloride; for LD50 p.o. (Table 2): repeated test, population of 500 mice for each compound, hydrochloride
Method: as §1, §2

[5] = cited from earlier work
[6] = p.o. one hour before tremorine 20 mg/kg i.p., evaluated 45 minutes after tremorine, population of 50 mice
[7] = repeated test, population of 500 mice for each compound
[8] = population of 500 mice, U.S. Pat. No. 4,208,410

SMILES | local anaesthetic activity [1] | ED50 ([2]; p.o. one hour before tremorine 20 mg/kg i.p., evaluated 45 minutes after tremorine, population of 50 mice, read-out: ED50 p.o., inhibition of tremor induced by tremorine (Table 1)) [mg/kg] | ED50 ([2]; repeated test, population of 500 mice for each compound, read-out: ED50 p.o., inhibition of tremor induced by tremorine (Table 2)) [mg/kg] | factor by which the therapeutic index is lower than the value given in U.S. Pat. No. 4,208,410 ([2]; mouse, in vivo) | T.I. (therapeutic index) (Table 1) ([2]; mouse, in vivo) | T.I. (therapeutic index) (Table 2) ([2]; mouse, in vivo) | LD50 ([3]; Table 1, read-out: LD50 p.o. (Table 1)) [mg/kg] | LD50 ([3]; repeated test, population of 500 mice for each compound, read-out: LD50 p.o. (Table 2)) [mg/kg] | ED50 p.o., inhibition of tremor induced by tremorine (Table 1) [2, 6] [mg/kg] | ED50 p.o., inhibition of tremor induced by tremorine (Table 2) [2, 7] [mg/kg] | LD50 p.o. (Table 1) [4] [mg/kg] | LD50 p.o. (Table 2) [4] [mg/kg] | local anaesthetic and antiparkinsonic activity ([5]; known from U.S. Pat. No. 4,208,410) | ED50, antiparkinsonic activity [5, 8] [mg/kg] | therapeutic index [5, 8]
CC(CN(C)C)CN1c2ccccc2OCOc2ccc(Cl)cc21 (racemic) [racemic, reference compound] | has local anaesthetic activity, detailed tests have not shown any therapeutically valuable effect | 25 | 10.5 | about 2.4 | 10.8 | 25.7 | 270 | 270 | – | – | – | – | – | – | –
CC(CN(C)C)CN1c2ccccc2OCOc2ccc(Cl)cc21 (single isomer, unassigned; (-)) [Example 7, (-)-2-Chloro-12-(3-dimethylamino-2-methylpropyl)-12H-dibenzo[d,g][1,3,6]dioxazocine hydrochloride] | – | – | – | – | 65.7 | 160.8 | – | – | 7 | 2.86 | 460 | 460 | – | – | –
CC(CN(C)C)CN1c2ccccc2OCOc2ccc(Cl)cc21 (single isomer, unassigned; (+)) [Example 6, (+)-2-chloro-12-(3-dimethylamino-2-methylpropyl)-12H-dibenzo[d,g][1,3,6]dioxazocine hydrochloride] | – | – | – | – | 72.7 | 168.4 | – | – | 2.2 | 0.95 | 160 | 160 | – | – | –
CC(CN(C)C)CN1c2ccccc2OCOc2ccc(Cl)cc21 (racemic) [2-chloro-12-(3-dimethylamino-2-methylpropyl)-12H-dibenzo[d,g][1,3,6]-dioxazocine] | – | – | – | – | – | – | – | – | – | – | – | – | has local anaesthetic and antiparkinsonic activity | 11 | 25

Reference: patent US4906622A, “Optically active 2-chloro-12-(3-dimethylamino-2-methyl-propyl)-12H-dibenzo[d.g] [1,3,6] dioxazocines and a process for the preparation thereof” (Egis Gyogyszergyar, priority 1985, dated 1990)
